PMC10291282, “Synthesis, ADMT prediction, and in vitro and in silico α-glucosidase inhibition evaluations of new quinoline–quinazolinone–thioacetamides” (RSC Advances, 2023)
Read-outs that look alike come from different tables or passages of the source.

Legend:
α-glucosidase [1] = molecular target: α-glucosidase; parameters: method as in PMID 28110817; settings: Fig. 1, template B study; read-out: IC50 against α-glucosidase; cited from earlier work
α-glucosidase [2] = molecular target: T1, α-glucosidase (Saccharomyces cerevisiae, UniProt P53341); test: biochemical; format: biochemical; settings: for anti-α-glucosidase activity in words: in comparison to acarbose; for decrease of inhibitory activity relative to compound 9g: replacement or removal of 4-OH of 9g
T1 construct: purchased Sigma-Aldrich
T1 sequence (P53341 whole entry): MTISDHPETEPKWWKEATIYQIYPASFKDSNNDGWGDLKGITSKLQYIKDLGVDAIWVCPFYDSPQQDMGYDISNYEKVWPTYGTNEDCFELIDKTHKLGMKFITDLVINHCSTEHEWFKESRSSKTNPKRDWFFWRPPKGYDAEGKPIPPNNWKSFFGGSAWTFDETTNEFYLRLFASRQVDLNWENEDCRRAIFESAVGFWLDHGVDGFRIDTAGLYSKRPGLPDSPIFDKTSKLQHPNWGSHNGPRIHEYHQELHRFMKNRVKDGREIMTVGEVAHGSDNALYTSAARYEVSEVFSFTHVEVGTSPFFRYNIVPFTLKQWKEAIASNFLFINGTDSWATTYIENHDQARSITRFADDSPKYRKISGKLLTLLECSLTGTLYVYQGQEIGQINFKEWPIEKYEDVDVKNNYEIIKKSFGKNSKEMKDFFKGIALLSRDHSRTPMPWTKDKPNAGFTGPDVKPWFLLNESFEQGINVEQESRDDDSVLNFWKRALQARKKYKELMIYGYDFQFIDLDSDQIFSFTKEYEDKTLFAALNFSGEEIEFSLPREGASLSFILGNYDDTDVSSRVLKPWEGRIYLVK
Experimental: Yeast form of α-glucosidase (EC3.2.1.20, Saccharomyces cerevisiae, 20 U mg^−1) and p-nitrophenyl glucopyranoside as substrate were purchased from Sigma-Aldrich. […] IC50 values were calculated by the percentage of enzyme inhibition and non-linear regression curve using the logit method.

α-glucosidase [3] = test: Literature α-glucosidase inhibition of quinoline template A; format: biochemical; settings: template A vs acarbose of that study
α-glucosidase [4] = settings: read-out: IC50 against α-glucosidase; Fig. 1, template A study; cited from earlier work
α-glucosidase [5] = molecular target: T1, α-glucosidase; test: Enzyme kinetics study for α-glucosidase inhibition; format: biochemical
Experimental: The 20 μL of α-glucosidase solution (1 U mL^−1) was incubated with different concentrations of compound 9g (0, 2.25, 4.5, and 9 μM) for 15 min at 30 °C. After that, the enzymatic reaction was started by adding different concentrations of p-nitrophenyl glucopyranoside (substrate, 1–4 mM), and change in absorbance was measured for 20 min at 405 nm by spectrophotometer (Gen5, Power Wave xs2, BioTek, America).

[6] = yeast α-glucosidase, p-nitrophenyl glucopyranoside substrate, pH 6.8, 37 °C, mean ± SD, read-out: IC50 against α-glucosidase

| Compound | melting point [°C] | IC50 (α-glucosidase [2]; [6]) [µM] | anti-α-glucosidase activity in words (α-glucosidase [2]) | also measured |
| --- | --- | --- | --- | --- |
| O=c1[nH]c(-c2ccc(Cl)cc2)nc2ccccc12 [Compound B] |  |  |  | IC50 (α-glucosidase [1]): 12.5 ± 0.1 µM |
| O=C(CSc1nc2ccccc2cc1-c1nc2ccccc2c(=O)[nH]1)NCc1ccccc1 [9n, N-Benzyl-2-{[3-(4-oxo-3,4-dihydroquinazolin-2-yl)quinolin-2-yl]thio}acetamide] | 201 to 203 | > 750 |  |  |
| O=C(CSc1nc2ccccc2cc1-c1nc2ccccc2c(=O)[nH]1)Nc1ccc([N+](=O)[O-])cc1 [9m, N-(4-Nitrophenyl)-2-{[3-(4-oxo-3,4-dihydroquinazolin-2-yl)quinolin-2-yl]thio}acetamide] | 217 to 219 | 52 ± 1.4 | potent members |  |
| O=C(CSc1nc2ccccc2cc1-c1nc2ccccc2c(=O)[nH]1)Nc1ccc(F)cc1 [9i, N-(4-Fluorophenyl)-2-{[3-(4-oxo-3,4-dihydroquinazolin-2-yl)quinolin-2-yl]thio}acetamide] | 206 to 208 | > 750 | eradicated inhibitory activity |  |
| CCc1ccc(NC(=O)CSc2nc3ccccc3cc2-c2nc3ccccc3c(=O)[nH]2)cc1 [9e, N-(4-Ethylphenyl)-2-{[3-(4-oxo-3,4-dihydroquinazolin-2-yl)quinolin-2-yl]thio}acetamide] | 208 to 210 | > 750 |  |  |
| O=C(CSc1nc2ccccc2cc1-c1nc2ccccc2c(=O)[nH]1)Nc1ccccc1 [9a, 2-{[3-(4-Oxo-3,4-dihydroquinazolin-2-yl)quinolin-2-yl]thio}-N-phenylacetamide] | 200 to 202 | 25.8 ± 0.6 | potent members | decrease of inhibitory activity relative to compound 9g (α-glucosidase [2]): 2.8 fold |
| O=C(O)c1ccc2ccccc2n1 [Compound A] |  |  |  | fold more potent than acarbose (α-glucosidase [3]): 7.3 fold; IC50 (α-glucosidase [4]): 9.1 ± 2.3 µM |
| Cc1ccc(NC(=O)CSc2nc3ccccc3cc2-c2nc3ccccc3c(=O)[nH]2)cc1 [9b, 2-{[3-(4-Oxo-3,4-dihydroquinazolin-2-yl)quinolin-2-yl]thio}-N-(p-tolyl)acetamide] | 203 to 205 | > 750 |  |  |
| O=C(CSc1nc2ccccc2cc1-c1nc2ccccc2c(=O)[nH]1)Nc1ccccc1F [9h, N-(2-Fluorophenyl)-2-{[3-(4-oxo-3,4-dihydroquinazolin-2-yl)quinolin-2-yl]thio}acetamide] | 209 to 211 | > 750 | eradicated inhibitory activity |  |
| O=C(CSc1nc2ccccc2cc1-c1nc2ccccc2c(=O)[nH]1)NCc1ccc(F)cc1 [9p, N-(4-Fluorobenzyl)-2-{[3-(4-oxo-3,4-dihydroquinazolin-2-yl)quinolin-2-yl]thio}acetamide] | 205 to 207 | > 750 |  |  |
| Cc1cccc(NC(=O)CSc2nc3ccccc3cc2-c2nc3ccccc3c(=O)[nH]2)c1C [9c, N-(2,3-Dimethylphenyl)-2-{[3-(4-oxo-3,4-dihydroquinazolin-2-yl)quinolin-2-yl]thio}acetamide] | 208 to 210 | > 750 |  |  |
| O=C(CSc1nc2ccccc2cc1-c1nc2ccccc2c(=O)[nH]1)Nc1cccc(Cl)c1 [9j, N-(3-Chlorophenyl)-2-{[3-(4-oxo-3,4-dihydroquinazolin-2-yl)quinolin-2-yl]thio}acetamide] | 212 to 214 | 53.4 ± 2.3 | potent members |  |
| O=C(CSc1nc2ccccc2cc1-c1nc2ccccc2c(=O)[nH]1)Nc1ccc(O)cc1 [9g, N-(4-Hydroxyphenyl)-2-{[3-(4-oxo-3,4-dihydroquinazolin-2-yl)quinolin-2-yl]thio}acetamide] | 210 to 212 | 9 ± 0.3 | potent members | type of inhibition (α-glucosidase [5]; Lineweaver–Burk plots): competitive; Ki (α-glucosidase [5]; secondary re-plot of Lineweaver–Burk plots, 0, 2.25, 4.5, 9.0 μM inhibitor): 7 µM; fold more potent than the most potent compound among template compounds C (α-glucosidase [2]; comparison with literature compounds C): 8.8 fold |
| COc1ccc(NC(=O)CSc2nc3ccccc3cc2-c2nc3ccccc3c(=O)[nH]2)cc1 [9f, N-(4-Methoxyphenyl)-2-{[3-(4-oxo-3,4-dihydroquinazolin-2-yl)quinolin-2-yl]thio}acetamide] | 203 to 205 |  | potent members | IC50 (α-glucosidase [2]): 37.7 ± 2.9 µM; decrease of inhibitory activity relative to compound 9g (α-glucosidase [2]): 4.1 fold |
| Cc1cccc(C)c1NC(=O)CSc1nc2ccccc2cc1-c1nc2ccccc2c(=O)[nH]1 [9d, N-(2,6-Dimethylphenyl)-2-{[3-(4-oxo-3,4-dihydroquinazolin-2-yl)quinolin-2-yl]thio}acetamide] | 220 to 222 | > 750 |  |  |
| O=C(CSc1nc2ccccc2cc1-c1nc2ccccc2c(=O)[nH]1)Nc1ccc(Br)cc1 [9l, N-(4-Bromophenyl)-2-{[3-(4-oxo-3,4-dihydroquinazolin-2-yl)quinolin-2-yl]thio}acetamide] | 208 to 210 | > 750 | eradicated inhibitory activity |  |
| O=C(CSc1nc2ccccc2cc1-c1nc2ccccc2c(=O)[nH]1)Nc1ccc(Cl)cc1 [9k, N-(4-Chlorophenyl)-2-{[3-(4-oxo-3,4-dihydroquinazolin-2-yl)quinolin-2-yl]thio}acetamide] | 209 to 211 | 40.1 ± 1.2 | potent members |  |
| Cc1ccc(CNC(=O)CSc2nc3ccccc3cc2-c2nc3ccccc3c(=O)[nH]2)cc1 [9o, N-(4-Methylbenzyl)-2-{[3-(4-oxo-3,4-dihydroquinazolin-2-yl)quinolin-2-yl]thio}acetamide] | 202 to 204 | > 750 |  |  |
